The format of series [1] is in vivo, human. Particulars: oral, post-dose fasting time 120 min, model-derived.
The format of series [2] is in vivo, human. Particulars: subjects with T2D, N = 55, oral, recommended dosing conditions; geometric mean of typical PK parameter values for each subject.
Series [3] has as its system plasma protein. Particulars: cited from earlier work.
The conditions of series [4]: reducing gastric pH with omeprazole; cited from earlier work.

Bounds are passed on as bounds.

On to `CC[C@H](C)[C@H](NC(=O)[C@H](Cc1ccccc1)NC(=O)[C@H](CCC(=O)O)NC(=O)[C@H](CCCCNC(=O)COCCOCCNC(=O)COCCOCCNC(=O)CC[C@H](NC(=O)CCCCCCCCCCCCCCCCC(=O)O)C(=O)O)NC(=O)[C@H](C)NC(=O)[C@H](C)NC(=O)[C@H](CCC(N)=O)NC(=O)CNC(=O)[C@H](CCC(=O)O)NC(=O)[C@H](CC(C)C)NC(=O)[C@H](Cc1ccc(O)cc1)NC(=O)[C@H](CO)NC(=O)[C@H](CO)NC(=O)[C@@H](NC(=O)[C@H](CC(=O)O)NC(=O)[C@H](CO)NC(=O)[C@@H](NC(=O)[C@H](Cc1ccccc1)NC(=O)[C@@H](NC(=O)CNC(=O)[C@H](CCC(=O)O)NC(=O)C(C)(C)NC(=O)[C@@H](N)Cc1cnc[nH]1)[C@@H](C)O)[C@@H](C)O)C(C)C)C(=O)N[C@@H](C)C(=O)N[C@@H](Cc1c[nH]c2ccccc12)C(=O)N[C@@H](CC(C)C)C(=O)N[C@H](C(=O)N[C@@H](CCCNC(=N)N)C(=O)NCC(=O)N[C@@H](CCCNC(=N)N)C(=O)NCC(=O)O)C(C)C` [semaglutide], for which, in series [1], the “Bioavailability, plateau with longer post-dose fasting time” value is listed as “around 1.4%”. The “ka (absorption rate)” value in series [2] came out at 2.09 h⁻¹. For the same compound, the Plasma protein binding in series [3] is reported as greater than 99%. For the same compound, in series [4], the “Change in semaglutide exposure” value was “small but not clinically relevant increase”.
